From article PMC5908295 (Oncotarget, 2018)

Tests used:
[1] = Metabolic stability, liver S9 fraction; assay type: in vitro ADME; settings: Human, 37 °C, read-out: Liver S9 fraction t1/2 (converted)
PL-21 = test: MTS viability assay, 72 h; settings: PL-21, 72 h
Method: (§10) 15-25 ×10^3 of MV-4-11, MOLM-13, MOLM-14, MOLM-16, KG-1, Eol-1, SKM-1, PL-21, GDM-1, SKNO-1, RS4;11, Kasumi-3 and Kasumi-6 cells were seeded in 150 μL of culture medium onto individual wells in a 96 well plates, in triplicates. On the same day, 50 μL of medium containing tested inhibitor was added to the wells. Each compound was tested at 8 concentrations, in triplicates. As a negative control, the medium containing 0.1% DMSO was used. […] Staurosporine was used at 10 μM as a positive control. One the day of drug addition, basal signal from untreated cells was measured from in triplicate to determine time zero (T0). […] GI50 and LC50 values were extrapolated from a variable (four-parameter) dose-response curve fitted in GraphPad Prism.

[2] = tested on: MV-4-11 tumors (FLT3-ITD+); test: MV-4-11 subcutaneous xenograft, single agent; assay type: in vivo, SCID/beige mice; settings: PO
From the text: (§1) All animals were handled in strict accordance with good animal practice as defined by the relevant national and local animal welfare bodies. SCID and SCID/beige C.B-17 mice were provided by Harlan Laboratories or Charles River Laboratories, and were maintained in pathogen free conditions. For the xenograft experiments, age-matched (9-11 weeks old) females were used. 5×10^6 of MV-4-11 or MOLM-16 cells were suspended in a mixture (1:1, v:v) of PBS with Matrigel (BD Biosciences,) and injected subcutaneously (sc), in a total volume of 100 μL, above the groin on the right hind limb. For MOLM-13 and KG-1 cells, a mixture (3:1, v:v) of PBS and Matrigel HC (BD Bioscience,) was used to inject 5 × 10^6 of cell per mouse subcutaneously (sc), in a total volume of 100 μL. When tumors reached 100-130 mm^3, mice were randomized into uniform groups (6-9 mice per group) and subsequently administered the compound. […] At the end of the experiment, mice were anesthetized with isofluran and blood samples for total cell counts and biochemistry were obtained by retro-orbital bleeding. […] 5×10^6 cells suspended in a mixture (3:1, v:v) of PBS and Matrigel were injected as described above. When the tumor volume reached ~120 mm^3, mice were randomized into uniform groups (5 mice per group) and the compound then administered. […] Tumor volume was monitored every second day and calculated using the formula: TV = (a^2×b)/2, where “a” is the short axis in millimeters, and “b” is the long axis in millimeters. Body weight was assessed every day.

PIM3 = PIM3 (Homo sapiens, UniProt Q86V86); test: KINOMEscan Kd (DiscoverX); assay type: binding
MOLM-14 = test: MTS viability assay, 72 h; settings: Homo sapiens, MOLM-14, 72 h
Method: as §10

PIM1 = PIM1 (Homo sapiens, UniProt P11309); test: KINOMEscan Kd (DiscoverX); assay type: binding
KG-1 (FLT3-WT) tumor = test: KG-1 subcutaneous xenograft; assay type: in vivo; settings: KG-1, SCID mice; doses not given
From the text: (§2) All animals were handled in strict accordance with good animal practice as defined by the relevant national and local animal welfare bodies. SCID and SCID/beige C.B-17 mice were provided by Harlan Laboratories or Charles River Laboratories, and were maintained in pathogen free conditions. For the xenograft experiments, age-matched (9-11 weeks old) females were used. 5×10^6 of MV-4-11 or MOLM-16 cells were suspended in a mixture (1:1, v:v) of PBS with Matrigel (BD Biosciences,) and injected subcutaneously (sc), in a total volume of 100 μL, above the groin on the right hind limb. For MOLM-13 and KG-1 cells, a mixture (3:1, v:v) of PBS and Matrigel HC (BD Bioscience,) was used to inject 5 × 10^6 of cell per mouse subcutaneously (sc), in a total volume of 100 μL. When tumors reached 100-130 mm^3, mice were randomized into uniform groups (6-9 mice per group) and subsequently administered the compound. […] At the end of the experiment, mice were anesthetized with isofluran and blood samples for total cell counts and biochemistry were obtained by retro-orbital bleeding. […] 5×10^6 cells suspended in a mixture (3:1, v:v) of PBS and Matrigel were injected as described above. […] Tumor volume was monitored every second day and calculated using the formula: TV = (a^2×b)/2, where “a” is the short axis in millimeters, and “b” is the long axis in millimeters. Body weight was assessed every day.

[3] = tested on: Phospho-S6 in MOLM-16 tumors; test: PK/PD: phospho-S6 in MOLM-16 tumors after dosing; assay type: in vivo, SCID/beige mice; settings: 25 mg/kg BID for 3 days
Method: At the end of the experiment, mice were sacrificed 4, 8 and 24h after the last dose (three mice per time point). Plasma and tumor samples were collected and stored at −80°C for further analysis.

KASUMI-6 = test: MTS viability assay, 72 h; settings: 72 h
Method: as §10

MV-4-11 = test: MTS viability assay, 72 h; settings: Homo sapiens, MV4-11, 72 h
Method: (§11) On the same day, 50 μL of medium containing tested inhibitor was added to the wells. Each compound was tested at 8 concentrations, in triplicates. As a negative control, the medium containing 0.1% DMSO was used. […] Staurosporine was used at 10 μM as a positive control. One the day of drug addition, basal signal from untreated cells was measured from in triplicate to determine time zero (T0). […] GI50 and LC50 values were extrapolated from a variable (four-parameter) dose-response curve fitted in GraphPad Prism.

[4] = Metabolic stability, liver S9 fraction; assay type: in vitro ADME; settings: Mouse, 37 °C, read-out: Liver S9 fraction t1/2 (converted)
SKM-1 = test: MTS viability assay, 72 h; settings: Homo sapiens, SKM-1, 72 h
Method: as §11

[5] = Metabolic stability, liver microsomes; assay type: in vitro ADME; settings: Dog, 37 °C, read-out: Liver microsomes t1/2 (converted)
EOL-1 = test: MTS viability assay, 72 h; settings: Homo sapiens, EOL1, 72 h
Method: as §10

CYP1A2 = CYP1A2 (Homo sapiens, UniProt P05177); test: CYP isoforms inhibition; assay type: in vitro ADME; settings: 5-dose, 3-fold dilution starting at 30 µM; in-house
Method: (§3) or absence of enzyme cofactors. The assay was performed microsomes. (Supplementary Table 7).
(§4) with the respective reference samples (i.e. without measured at Cambridge Bioscience Limited (except
(§5) cofactors). After incubation, drug transformation by liver CYP1A2 inhibition which was measured in-house). The
(§6) enzymes was terminated by adding cold acetonitrile.
(§7) loss of compound was determined by LC-MS analysis. serial dilution starting at 30 μM. The control compound
(§8) The analysis of two standard compounds (i.e. positive a very weak potential for CYP inhibition with IC50
(§9) and negative controls) was included. […]

CYP2C8 = biological target: T1, CYP2C8 (Homo sapiens, UniProt P10632); test: CYP isoforms inhibition; assay type: in vitro ADME; settings: 5-dose, 3-fold dilution starting at 30 µM
T1 construct: Cambridge Bioscience Limited (ran the assay)
Method: as §3, §4, §5, §6, §7, §8, §9

CYP2B6 = biological target: T2, CYP2B6 (Homo sapiens, UniProt P20813); test: CYP isoforms inhibition; assay type: in vitro ADME; settings: 5-dose, 3-fold dilution starting at 30 µM
T2 construct: Cambridge Bioscience Limited (ran the assay)
Method: as §3, §4, §5, §6, §7, §8, §9

[6] = Pharmacokinetics after oral and intravenous administration; assay type: in vivo, mice (CD-1); settings: female, CD-1, plasma, Mouse, Dose PO/IV 50/15 mg/kg
Method: therapeutic potential in acute myeloid leukemia
sheet for further calculations.
Three male Beagle dogs were administered

MOLM-13 xenografts = test: MOLM-13 subcutaneous xenograft; assay type: in vivo; settings: MOLM-13, SCID mice; AC220 10 mg/kg QD, other doses not given
From the text: as §2

[7] = Blood biochemistry in mice with MV-4-11 tumors; assay type: in vivo; settings: treatment day 15
From the text: as §1
Supplementary Table 9: Related to Figure 5C. […] The assessment of
was performed on treatment day 15.
AST – Aspartate aminotransferase, ALT – Alanine transaminase, ALP – alkaline phosphatase, UREA – blood urea nitrogen,
CREA – Creatinine, CK – Creatine kinase, TP- total protein; ALB – Albumin. […]

T1 sequence (P10632 whole entry, canonical isoform): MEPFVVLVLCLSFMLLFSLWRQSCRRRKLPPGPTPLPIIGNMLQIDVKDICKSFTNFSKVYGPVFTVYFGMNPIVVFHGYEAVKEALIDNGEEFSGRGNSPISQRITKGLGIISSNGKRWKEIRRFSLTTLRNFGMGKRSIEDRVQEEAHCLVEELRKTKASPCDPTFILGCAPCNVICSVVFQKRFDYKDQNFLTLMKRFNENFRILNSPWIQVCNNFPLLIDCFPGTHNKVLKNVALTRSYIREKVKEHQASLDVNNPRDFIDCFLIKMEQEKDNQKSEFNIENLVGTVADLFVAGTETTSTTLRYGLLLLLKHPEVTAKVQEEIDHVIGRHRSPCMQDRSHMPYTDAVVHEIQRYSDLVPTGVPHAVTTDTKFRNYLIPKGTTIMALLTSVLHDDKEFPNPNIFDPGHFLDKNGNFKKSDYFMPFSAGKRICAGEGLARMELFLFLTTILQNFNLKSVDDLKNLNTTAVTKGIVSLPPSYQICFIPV
T2 sequence (P20813 whole entry, canonical isoform): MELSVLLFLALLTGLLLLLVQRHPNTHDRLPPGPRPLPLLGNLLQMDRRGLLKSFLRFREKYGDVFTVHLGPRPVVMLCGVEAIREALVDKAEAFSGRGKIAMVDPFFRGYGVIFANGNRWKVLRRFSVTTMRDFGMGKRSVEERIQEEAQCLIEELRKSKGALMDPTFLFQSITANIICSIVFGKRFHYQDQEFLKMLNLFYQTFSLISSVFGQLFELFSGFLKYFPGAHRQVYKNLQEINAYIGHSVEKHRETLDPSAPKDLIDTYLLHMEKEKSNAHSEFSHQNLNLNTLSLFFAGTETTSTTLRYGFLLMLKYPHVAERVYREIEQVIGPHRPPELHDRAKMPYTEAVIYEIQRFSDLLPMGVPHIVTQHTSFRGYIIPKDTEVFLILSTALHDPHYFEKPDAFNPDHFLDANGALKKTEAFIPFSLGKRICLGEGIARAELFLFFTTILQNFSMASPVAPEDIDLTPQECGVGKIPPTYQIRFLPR
Sequence of PIM1 (P11309 whole entry): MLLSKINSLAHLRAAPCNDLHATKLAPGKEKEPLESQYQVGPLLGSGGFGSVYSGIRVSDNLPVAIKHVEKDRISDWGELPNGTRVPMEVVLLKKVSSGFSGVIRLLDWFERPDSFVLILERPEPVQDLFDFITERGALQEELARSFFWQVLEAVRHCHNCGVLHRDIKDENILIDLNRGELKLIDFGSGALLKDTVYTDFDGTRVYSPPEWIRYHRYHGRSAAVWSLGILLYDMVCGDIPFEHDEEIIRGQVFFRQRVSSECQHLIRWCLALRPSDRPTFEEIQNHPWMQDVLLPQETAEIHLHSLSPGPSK
Sequence of CYP1A2 (P05177 whole entry, canonical isoform): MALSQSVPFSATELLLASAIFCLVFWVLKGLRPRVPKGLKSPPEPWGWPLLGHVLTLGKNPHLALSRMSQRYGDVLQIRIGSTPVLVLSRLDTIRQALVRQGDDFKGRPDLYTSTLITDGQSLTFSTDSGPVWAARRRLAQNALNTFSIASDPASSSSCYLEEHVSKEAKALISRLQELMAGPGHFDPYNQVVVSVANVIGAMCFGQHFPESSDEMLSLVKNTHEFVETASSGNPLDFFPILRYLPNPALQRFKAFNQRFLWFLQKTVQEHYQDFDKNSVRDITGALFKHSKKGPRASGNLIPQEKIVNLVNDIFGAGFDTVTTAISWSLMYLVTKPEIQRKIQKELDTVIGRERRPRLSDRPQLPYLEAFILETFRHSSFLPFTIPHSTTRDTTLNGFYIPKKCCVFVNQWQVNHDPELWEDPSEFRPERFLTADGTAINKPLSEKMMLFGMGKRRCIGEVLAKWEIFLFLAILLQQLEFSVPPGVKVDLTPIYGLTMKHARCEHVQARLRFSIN

Question: Which results are given for CC(C)n1c(C2CCNCC2)nc2c([N+](=O)[O-])c(Br)c(Br)cc21 [SEL24-B489, 5,6-dibromo-4-nitro-2-(piperidin-4-yl)-1-(propan-2-yl)-1H-1,3-benzodiazole]?
Answer: half-life at 1 µM [1]: 9.9 h; GI50 (PL-21): 1710 nM; tumor growth inhibition (TGI) ([2]; MV-4-11, 50 mg/kg daily): 67%; tumor growth inhibition (TGI) ([2]; MV-4-11, 75 mg/kg daily): 74%; tumor growth inhibition (TGI) ([2]; MV-4-11, 100 mg/kg daily): 82%; Kd (PIM3): 3 nM; GI50 (MOLM-14): 97 nM; CC50 (MOLM-14; read-out: LC50): > 10000 nM; Kd (PIM1): 2 nM; TGI (KG-1 (FLT3-WT) tumor): ~ 50%; time after the last dose that Phospho-S6 remained suppressed [3]: up to 8 hours; GI50 (KASUMI-6): 17 nM; GI50 (MV-4-11): 20 nM; CC50 (MV-4-11; read-out: LC50): > 10000 nM; half-life at 1 µM [4]: 2.6 h; GI50 (SKM-1): 732 nM; CC50 (SKM-1; read-out: LC50): 7770 nM; half-life at 1 µM [5]: 7.6 h; GI50 (EOL-1): 266 nM; IC50 (CYP1A2): > 30000 nM; IC50 (CYP2C8): > 30000 nM; IC50 (CYP2B6): > 40000 nM; Cmax ([6]; 50 mg/kg): 2180 ng/mL; Tmax ([6]; 50 mg/kg): 4 h; bioavailability ([6]; 50 mg/kg, read-out: F (bioavailability)): 62%; AUC(0-t) [6]: 26200 ng·h/mL; half-life [6]: 5.2 h; TGI (MOLM-13 xenografts): ~ 50%; ALB ([7]; SEL24-B489 25 mg/kg): 5.3 g/dL; ALP ([7]; SEL24-B489 25 mg/kg): 94.2 U/L; AST ([7]; SEL24-B489 25 mg/kg): 202.4 U/L; CK ([7]; SEL24-B489 25 mg/kg): 2076 U/L; CREA ([7]; SEL24-B489 25 mg/kg): 0.40 mg/dL; K ([7]; SEL24-B489 25 mg/kg): 5.3 mM; TP ([7]; SEL24-B489 25 mg/kg): 5.6 g/dL; UREA ([7]; SEL24-B489 25 mg/kg): 6.0 mmol/L; ALB ([7]; SEL24-B489 50 mg/kg): 4.4 g/dL; ALP ([7]; SEL24-B489 50 mg/kg): 97.2 U/L; ALT ([7]; SEL24-B489 50 mg/kg): 49.4 U/L; AST ([7]; SEL24-B489 50 mg/kg): 135.2 U/L; CK ([7]; SEL24-B489 50 mg/kg): 1206 U/L; CREA ([7]; SEL24-B489 50 mg/kg): 0.49 mg/dL; K ([7]; SEL24-B489 50 mg/kg): 5.3 mM; Na ([7]; SEL24-B489 50 mg/kg): 141 mM; TP ([7]; SEL24-B489 50 mg/kg): 5.1 g/dL; UREA ([7]; SEL24-B489 50 mg/kg): 6.6 mmol/L
